{"source": "ChEMBL document CHEMBL6127088", "about": "“Novel 2-aminothiazole analogues both as polymyxin E synergist and antimicrobial agent against multidrug-resistant Gram-positive bacteria” (2024)", "key": {"Acinetobacter baumannii [1]": {"test_system": "Acinetobacter baumannii", "assay": "Synergistic antibacterial activity against Acinetobacter baumannii ATCC 19606 infected in female Balb/c mouse model assessed as survival rate of mouse at 64 mg/kg, iv administered every 12 hrs in presence of polymyxin-E and measured for 7 days", "assay_type": "functional"}, "Listeria monocytogenes": {"test_system": "Listeria monocytogenes", "assay": "Antibacterial activity against Listeria monocytogenes assessed as inhibition of bacterial growth incubated for 18 hrs by broth microdilution method", "assay_type": "functional"}, "Cell membrane [2]": {"test_system": "Cell membrane", "assay": "Disruption of cell membrane integrity in Acinetobacter baumannii ATCC 19606 assessed as displacement of outer membrane at 4 microg/ml incubated for 1 hrs by TEM analysis", "assay_type": "subcellular", "details": "dose 4.0 µg/ml"}, "Klebsiella pneumoniae [3]": {"test_system": "Klebsiella pneumoniae", "assay": "Antibacterial activity against Klebsiella pneumoniae SIPI-KPN-1712 incubated for 18 hrs by broth microdilution method", "assay_type": "functional"}, "Staphylococcus aureus [4]": {"test_system": "Staphylococcus aureus", "assay": "Antimicrobial activity against methicillin/ofloxacin-resistant Staphylococcus aureus ATCC 43300 assessed as minimum inhibitory concentration incubated for 18 hrs by broth microdilution method", "assay_type": "functional"}, "Klebsiella pneumoniae [5]": {"test_system": "Klebsiella pneumoniae", "assay": "Antibacterial activity against Klebsiella pneumoniae KPN 1617 incubated for 18 hrs by broth microdilution method", "assay_type": "functional"}, "Staphylococcus aureus [6]": {"test_system": "Staphylococcus aureus", "assay": "Antibacterial activity against methicillin-resistant Staphylococcus aureus ATCC 43300 assessed as inhibition of bacterial growth at 0.5 to 1 microg/ml measured between 8 to 24 hrs by time-kill assay", "assay_type": "functional, organism-based", "details": "dose 0.5-1 µg/ml, time 8-24 hrs"}, "Acinetobacter baumannii [7]": {"test_system": "Acinetobacter baumannii", "assay": "Synergistic antibacterial activity against Acinetobacter baumannii Ab 1613 assessed as fold change in polymyxin-E MIC incubated for 18 hrs by broth microdilution method relative to polymyxin-E alone", "assay_type": "functional"}, "Acinetobacter baumannii [8]": {"test_system": "Acinetobacter baumannii", "assay": "Synergistic antimicrobial activity against Acinetobacter baumannii ATCC 19606 assessed as fractional inhibitory concentration index in presence of polymyxin E incubated for 18 to 20 hrs by chequerboard assay", "assay_type": "functional", "details": "time 18-20 hrs"}, "Pseudomonas aeruginosa [9]": {"test_system": "Pseudomonas aeruginosa", "assay": "Antibacterial activity against Pseudomonas aeruginosa PAE 3887 incubated for 18 hrs by broth microdilution method", "assay_type": "functional"}, "Staphylococcus aureus [10]": {"test_system": "Staphylococcus aureus", "assay": "Antibacterial activity against Staphylococcus aureus SF 8300 assessed as inhibition of bacterial growth incubated for 18 hrs by broth microdilution method", "assay_type": "functional"}, "Pseudomonas aeruginosa [11]": {"test_system": "Pseudomonas aeruginosa", "assay": "Synergistic antibacterial activity against Pseudomonas aeruginosa PAE 1051 assessed as polymyxin-E MIC at 4 microg/ml incubated for 18 hrs by broth microdilution method", "assay_type": "functional", "details": "dose 4 µg/ml"}, "Acinetobacter baumannii [12]": {"test_system": "Acinetobacter baumannii", "assay": "Synergistic antibacterial activity against Acinetobacter baumannii ATCC 19606 assessed as fold change in polymyxin-E MIC incubated for 18 hrs by broth microdilution method relative to polymyxin-E alone", "assay_type": "functional"}, "Cell membrane [13]": {"test_system": "Cell membrane", "assay": "Disruption of cell membrane integrity in Acinetobacter baumannii ATCC 19606 assessed as cellular vacuolization at 4 microg/ml incubated for 1 hrs in presence of polymyxin-E by TEM analysis", "assay_type": "subcellular", "details": "dose 4.0 µg/ml"}, "Pseudomonas aeruginosa [14]": {"test_system": "Pseudomonas aeruginosa", "assay": "Synergistic antibacterial activity against Pseudomonas aeruginosa […] assessed as polymyxin-E MIC at 4 microg/ml incubated for 18 hrs by broth microdilution method", "assay_type": "functional", "details": "dose 4 µg/ml"}, "Staphylococcus aureus [15]": {"test_system": "Staphylococcus aureus", "assay": "Antibacterial activity against Staphylococcus aureus S1-1-33 assessed as inhibition of bacterial growth incubated for 18 hrs by broth microdilution method", "assay_type": "functional"}, "Klebsiella pneumoniae [16]": {"test_system": "Klebsiella pneumoniae", "assay": "Antibacterial activity against Klebsiella pneumoniae KPN 943 incubated for 18 hrs by broth microdilution method", "assay_type": "functional"}, "Klebsiella pneumoniae [17]": {"test_system": "Klebsiella pneumoniae", "assay": "Synergistic antibacterial activity against Klebsiella pneumoniae SIPI-KPN-1712 assessed as fold change in polymyxin-E MIC incubated for 18 hrs by broth microdilution method relative to polymyxin-E alone", "assay_type": "functional"}, "[18]": {"test_system": "Mycolicibacterium smegmatis", "assay": "Antibacterial activity against Mycobacterium smegmatis ATCC 704 assessed as inhibition of bacterial growth incubated for 18 hrs by broth microdilution method", "assay_type": "functional"}, "Cell membrane [19]": {"test_system": "Cell membrane", "assay": "Disruption of cell membrane integrity in Acinetobacter baumannii ATCC 19606 assessed as reduction in nucleoid boundaries at 4 microg/ml incubated for 1 hrs in presence of polymyxin-E by TEM analysis", "assay_type": "subcellular", "design": "scale not given: the % may be the effect or the level left", "details": "dose 4.0 µg/ml"}, "Staphylococcus aureus [20]": {"test_system": "Staphylococcus aureus", "assay": "Antibacterial activity against Staphylococcus aureus LAC assessed as inhibition of bacterial growth incubated for 18 hrs by broth microdilution method", "assay_type": "functional"}, "Bacillus subtilis [21]": {"test_system": "Bacillus subtilis", "assay": "Antibacterial activity against Bacillus subtilis CMCC(B) 63501 assessed as inhibition of bacterial growth incubated for 18 hrs by broth microdilution method", "assay_type": "functional"}, "Cell membrane [22]": {"test_system": "Cell membrane", "assay": "Disruption of cell membrane integrity in Acinetobacter baumannii ATCC 19606 assessed as cytoplasmic content leakage at 4 microg/ml incubated for 1 hrs in presence of polymyxin-E by TEM analysis", "assay_type": "subcellular", "details": "dose 4.0 µg/ml"}, "Enterococcus faecalis [23]": {"test_system": "Enterococcus faecalis", "assay": "Antibacterial activity against Enterococcus faecalis ATCC 29212 assessed as inhibition of bacterial growth incubated for 18 hrs by broth microdilution method", "assay_type": "functional"}, "Bacillus subtilis [24]": {"test_system": "Bacillus subtilis", "assay": "Antibacterial activity against Bacillus subtilis 168 assessed as inhibition of bacterial growth incubated for 18 hrs by broth microdilution method", "assay_type": "functional"}, "Staphylococcus aureus [25]": {"test_system": "Staphylococcus aureus", "assay": "Antibacterial activity against Staphylococcus aureus S1-1-38 assessed as inhibition of bacterial growth incubated for 18 hrs by broth microdilution method", "assay_type": "functional"}, "Klebsiella pneumoniae [26]": {"test_system": "Klebsiella pneumoniae", "assay": "Synergistic antibacterial activity against Klebsiella pneumoniae KPN 943 assessed as fold change in polymyxin-E MIC incubated for 18 hrs by broth microdilution method relative to polymyxin-E alone", "assay_type": "functional"}, "Acinetobacter baumannii [27]": {"test_system": "Acinetobacter baumannii", "assay": "Antibacterial activity against Acinetobacter baumannii Ab 1611 incubated for 18 hrs by broth microdilution method", "assay_type": "functional"}, "Pseudomonas aeruginosa [28]": {"test_system": "Pseudomonas aeruginosa", "assay": "Antibacterial activity against Pseudomonas aeruginosa ATCC 13883 incubated for 18 hrs by broth microdilution method", "assay_type": "functional"}, "Klebsiella pneumoniae [29]": {"test_system": "Klebsiella pneumoniae", "assay": "Synergistic antibacterial activity against Klebsiella pneumoniae SIPI-KPN-1712 assessed as fractional inhibitory concentration index at 4 microg/ml incubated for 18 to 20 hrs by chequerboard assay", "assay_type": "functional", "details": "dose 4 µg/ml; time 18-20 hrs"}, "Cell membrane [30]": {"test_system": "Cell membrane", "assay": "Induction of outer membrane disruption in Acinetobacter baumannii ATCC 19606 assessed as decrease in fluorescence intensity by NPN dye based fluorescence analysis", "assay_type": "subcellular"}, "Bacillus subtilis [31]": {"test_system": "Bacillus subtilis", "assay": "Antimicrobial activity against Bacillus subtilis ATCC 20678 incubated for 18 hrs by broth microdilution method", "assay_type": "functional"}, "Acinetobacter baumannii [32]": {"test_system": "Acinetobacter baumannii", "assay": "Synergistic antibacterial activity against Acinetobacter baumannii Ab 1611 assessed as fold change in polymyxin-E MIC incubated for 18 hrs by broth microdilution method relative to polymyxin-E alone", "assay_type": "functional"}, "Acinetobacter baumannii [33]": {"test_system": "Acinetobacter baumannii", "assay": "Antibacterial activity against Acinetobacter baumannii Ab 1613 incubated for 18 hrs by broth microdilution method", "assay_type": "functional"}, "Acinetobacter baumannii [34]": {"test_system": "Acinetobacter baumannii", "assay": "Synergistic antibacterial activity against Acinetobacter baumannii Ab 1613 assessed as fractional inhibitory concentration index at 4 microg/ml incubated for 18 to 20 hrs by chequerboard assay", "assay_type": "functional", "details": "dose 4 µg/ml; time 18-20 hrs"}, "Staphylococcus aureus [35]": {"test_system": "Staphylococcus aureus", "assay": "Antibacterial activity against Staphylococcus aureus S1-1-65 assessed as inhibition of bacterial growth incubated for 18 hrs by broth microdilution method", "assay_type": "functional"}, "Acinetobacter baumannii [36]": {"test_system": "Acinetobacter baumannii", "assay": "Antibacterial activity against Acinetobacter baumannii ATCC 19606 assessed as inhibition of bacterial growth at 16 microg/ml incubated for overnight by time-kill assay", "assay_type": "functional, organism-based", "details": "dose 16.0 µg/ml"}, "Enterococcus faecalis [37]": {"test_system": "Enterococcus faecalis", "assay": "Antimicrobial activity against vancomycin-resistant Enterococcus faecalis ATCC 51299 assessed as minimum inhibitory concentration incubated for 18 hrs by broth microdilution method", "assay_type": "functional"}, "Pseudomonas aeruginosa [38]": {"test_system": "Pseudomonas aeruginosa", "assay": "Synergistic antibacterial activity against Pseudomonas aeruginosa PAE 3887 assessed as fold change in polymyxin-E MIC incubated for 18 hrs by broth microdilution method relative to polymyxin-E alone", "assay_type": "functional"}, "Staphylococcus aureus [39]": {"test_system": "Staphylococcus aureus", "assay": "Antibacterial activity against Staphylococcus aureus NCTC 8325 assessed as inhibition of bacterial growth incubated for 18 hrs by broth microdilution method", "assay_type": "functional"}}, "note": "Activity calls are given as the source filed them. The rule behind the calls is not given here.", "data": [{"smiles": "C/C(=N\\Nc1ccccn1)c1csc(Nc2cc(F)cc(C(F)(F)F)c2)n1", "values": [{"measurement": "survival at 64 mg/kg", "setting": "Acinetobacter baumannii [1]", "value": 100, "unit": "%"}, {"measurement": "MIC", "setting": "Listeria monocytogenes", "value": 4, "unit": "µg/mL"}, {"measurement": "Activity", "setting": "Cell membrane [2]", "value": "Active"}, {"measurement": "MIC", "setting": "Klebsiella pneumoniae [3]", "value": "> 128", "unit": "µg/mL"}, {"measurement": "MIC", "setting": "Staphylococcus aureus [4]", "value": 1, "unit": "µg/mL"}, {"measurement": "MIC", "setting": "Klebsiella pneumoniae [5]", "value": "> 128", "unit": "µg/mL"}, {"measurement": "Activity", "setting": "Staphylococcus aureus [6]", "value": "inactive"}, {"measurement": "fold change (FC)", "setting": "Acinetobacter baumannii [7]", "value": 4}, {"measurement": "fractional inhibitory concentration index (FICI)", "setting": "Acinetobacter baumannii [8]", "value": 0.066}, {"measurement": "MIC", "setting": "Pseudomonas aeruginosa [9]", "value": "> 128", "unit": "µg/mL"}, {"measurement": "MIC", "setting": "Staphylococcus aureus [10]", "value": 1, "unit": "µg/mL"}, {"measurement": "MIC", "setting": "Pseudomonas aeruginosa [11]", "value": 0.25, "unit": "µg/mL"}, {"measurement": "fold change (FC)", "setting": "Acinetobacter baumannii [12]", "value": 16}, {"measurement": "Activity", "setting": "Cell membrane [13]", "value": "Active"}, {"measurement": "MIC", "setting": "Pseudomonas aeruginosa [14]", "value": 1, "unit": "µg/mL"}, {"measurement": "MIC", "setting": "Staphylococcus aureus [15]", "value": 2, "unit": "µg/mL"}, {"measurement": "MIC", "setting": "Klebsiella pneumoniae [16]", "value": "> 128", "unit": "µg/mL"}, {"measurement": "fold change (FC)", "setting": "Klebsiella pneumoniae [17]", "value": 16}, {"measurement": "MIC", "setting": "[18]", "value": 1, "unit": "µg/mL"}, {"measurement": "Activity", "setting": "Cell membrane [19]", "value": 100, "unit": "%"}, {"measurement": "MIC", "setting": "Staphylococcus aureus [20]", "value": 1, "unit": "µg/mL"}, {"measurement": "MIC", "setting": "Bacillus subtilis [21]", "value": 0.5, "unit": "µg/mL"}, {"measurement": "Activity", "setting": "Cell membrane [22]", "value": "Active"}, {"measurement": "MIC", "setting": "Enterococcus faecalis [23]", "value": 2, "unit": "µg/mL"}, {"measurement": "MIC", "setting": "Bacillus subtilis [24]", "value": 1, "unit": "µg/mL"}, {"measurement": "MIC", "setting": "Staphylococcus aureus [25]", "value": 0.5, "unit": "µg/mL"}, {"measurement": "fold change (FC)", "setting": "Klebsiella pneumoniae [26]", "value": 32}, {"measurement": "MIC", "setting": "Acinetobacter baumannii [27]", "value": "> 128", "unit": "µg/mL"}, {"measurement": "MIC", "setting": "Pseudomonas aeruginosa [28]", "value": "> 128", "unit": "µg/mL"}, {"measurement": "fractional inhibitory concentration index (FICI)", "setting": "Klebsiella pneumoniae [29]", "value": 0.094}, {"measurement": "Activity", "setting": "Cell membrane [30]", "value": "Active"}, {"measurement": "MIC", "setting": "Bacillus subtilis [31]", "value": 1, "unit": "µg/mL"}, {"measurement": "fold change (FC)", "setting": "Acinetobacter baumannii [32]", "value": 16}, {"measurement": "MIC", "setting": "Acinetobacter baumannii [33]", "value": "> 128", "unit": "µg/mL"}, {"measurement": "fractional inhibitory concentration index (FICI)", "setting": "Acinetobacter baumannii [34]", "value": 0.281}, {"measurement": "MIC", "setting": "Staphylococcus aureus [35]", "value": 4, "unit": "µg/mL"}, {"measurement": "Activity", "setting": "Acinetobacter baumannii [36]", "value": "inactive"}, {"measurement": "MIC", "setting": "Enterococcus faecalis [37]", "value": 1, "unit": "µg/mL"}, {"measurement": "fold change (FC)", "setting": "Pseudomonas aeruginosa [38]", "value": 16}, {"measurement": "MIC", "setting": "Staphylococcus aureus [39]", "value": 0.5, "unit": "µg/mL"}]}]}
